Assay results published in the supplement of paper PMC10307832.

Tests used:
Assay in all cases: relative viability (nuclei count vs DMSO), 5 days (fraction); higher = more cells survive
RU-SKI 43 = compound: CC[C@@H](C)CNCC(=O)N1CCC2=C([C@@H]1COC3=CC=CC(=C3)C)C=CS2 [RU-SKI 43]
How it was run: (§1)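 Cells of lung cancer lines were placed in 1536-well plates and kept overnight at 37 °C. Pinning then delivered five library-drug doses (not always all listed), spaced by √10, onto plates anchored with vehicle, and the cells were left 5 days without changing medium. One step fixed, permeabilised and stained them with Hoechst, and MetaXpress counted nuclei in 4× images. Viability, as a median over plates, is treated-well nuclei divided by vehicle-well nuclei, with acceptance only at control CV below 25% and at least one doubling.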

Irinotecan = compound: CCc1c2c(nc3ccc(OC(=O)N4CCC(N5CCCCC5)CC4)cc13)-c1cc3c(c(=O)n1C2)COC(=O)[C@]3(O)CC [Irinotecan]
How it was run: as §1

MK-8033 = compound: Cn1cc(-c2cnc3ccc4ccc(CS(=O)(=O)NCc5ccccn5)cc4c(=O)c3c2)cn1 [MK-8033]
How it was run: as §1

Irinotecan + Dasatinib = compound: CCc1c2c(nc3ccc(OC(=O)N4CCC(N5CCCCC5)CC4)cc13)-c1cc3c(c(=O)n1C2)COC(=O)[C@]3(O)CC [Irinotecan] + Cc1nc(Nc2ncc(C(=O)Nc3c(C)cccc3Cl)s2)cc(N2CCN(CCO)CC2)n1 [Dasatinib] (partner 0.075 µM)
How it was run: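 A single step with final 0.05% Triton X-100, 1% formaldehyde and 1 ug/ml Hoechst fixed the cells and stained nuclei 5 days after treatment. Lung cancer cell lines in 1536-well plates had been treated by pin tool the day after seeding with one drug alone or a fixed anchor-drug dose plus five library-drug doses (not always all listed) in √10 steps, and nuclei were counted on 4× images. Relative viability is the ratio of nuclei in treated wells to nuclei in vehicle wells, taken as the median of duplicate plates.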

| Cell Line | relative viability (RU-SKI 43; 0.1 µM) | relative viability (RU-SKI 43; 0.3162 µM) | relative viability (RU-SKI 43; 1 µM) | relative viability (RU-SKI 43; 3.162 µM) | relative viability (RU-SKI 43; 10 µM) | relative viability (Irinotecan; 0.6325 µM) | relative viability (Irinotecan; 2 µM) | relative viability (Irinotecan; 6.325 µM) | relative viability (Irinotecan; 20 µM) | relative viability (MK-8033; 0.02 µM) | relative viability (MK-8033; 0.06325 µM) | relative viability (MK-8033; 0.2 µM) | relative viability (MK-8033; 0.6325 µM) | relative viability (MK-8033; 2 µM) | relative viability (Irinotecan + Dasatinib; first compound 0.6325 µM) | relative viability (Irinotecan + Dasatinib; first compound 2 µM) | relative viability (Irinotecan + Dasatinib; first compound 6.325 µM) | relative viability (Irinotecan + Dasatinib; first compound 20 µM) |
| --- | --- | --- | --- | --- | --- | --- | --- | --- | --- | --- | --- | --- | --- | --- | --- | --- | --- | --- |
| HCC-366 | 1.11 | 1.23 | 1.05 | 1.08 | 0.979 | 0.591 | 0.615 | 0.093 | 0.081 | 1.03 | 1.03 | 0.977 | 1.02 | 1.06 | 0.362 | 0.429 | 0.0758 | 0.0603 |
| HCC-827 | 1.06 | 1.01 | 1.1 | 1.05 | 1.06 | 0.938 | 0.779 | 0.263 | 0.296 | 1.01 |  | 1.01 | 1.01 | 1.05 | 0.459 | 0.219 | 0.247 | 0.227 |
| HOP-62 | 1.05 | 0.986 | 1.11 | 1.09 | 1.09 | 0.558 | 0.714 | 0.194 | 0.2 | 1 | 0.976 | 0.98 | 0.989 | 0.973 | 0.549 | 0.589 | 0.276 | 0.201 |
| IA-LM | 1.1 | 1.02 | 1.15 | 1.07 | 0.98 | 0.616 | 0.419 | 0.208 | 0.0921 | 0.886 | 0.933 | 0.933 | 0.93 | 0.952 |  |  |  |  |
| LC-2-ad | 0.967 | 1.02 | 1.16 | 0.963 | 0.932 | 0.47 | 0.492 | 0.299 | 0.191 | 0.953 | 0.938 | 0.936 | 1 | 0.927 | 0.286 | 0.437 | 0.184 | 0.204 |
| LCLC-97TM1 | 1.13 | 0.972 | 1.05 | 0.973 | 0.838 | 0.39 | 0.454 | 0.173 | 0.167 | 1.05 | 0.927 | 0.795 | 0.999 | 0.975 | 0.711 | 0.589 | 0.121 | 0.132 |
| LCLC-103H | 1.05 | 1.07 | 1.18 | 1.06 | 1.03 | 0.945 | 0.929 | 0.451 | 0.423 | 0.99 | 1 | 0.896 | 0.997 | 1.06 | 0.413 | 0.439 | 0.324 | 0.275 |
| LK-2 | 1.09 | 1.13 | 1.31 | 1.22 | 1.06 | 1.04 | 0.956 | 0.486 | 0.282 | 0.992 | 0.885 | 0.92 | 1.01 | 1.09 | 0.251 | 0.298 | 0.249 | 0.287 |
| LOU-NH91 | 0.971 | 0.918 | 1.03 | 0.939 | 0.932 | 0.898 | 0.971 | 0.456 | 0.385 | 0.979 | 0.712 | 0.941 | 0.937 | 0.975 | 0.525 | 0.548 | 0.31 | 0.361 |
| LU99A | 0.93 | 1.08 | 0.95 | 0.966 | 0.851 | 0.38 | 0.355 | 0.215 | 0.212 | 1.05 | 0.897 | 0.817 | 0.947 | 0.926 | 0.303 | 0.322 | 0.248 | 0.177 |
| LXF-289 | 1.05 | 1.08 | 1.02 | 1.1 | 0.999 | 0.892 | 0.965 | 0.659 | 0.265 | 1.02 | 0.983 | 0.955 | 1.16 | 0.995 | 0.138 | 0.265 | 0.172 | 0.139 |
| NCI-H23 | 1.03 | 1.18 | 1.1 | 1.1 | 0.926 | 0.693 | 0.73 | 0.332 | 0.234 | 0.977 | 0.897 | 0.893 | 1.06 | 0.86 | 0.563 | 0.679 | 0.274 | 0.231 |
| NCI-H322M | 0.985 | 0.945 | 1.05 | 0.939 | 0.978 | 0.8 | 0.754 | 0.503 | 0.385 | 0.952 | 0.766 | 0.878 | 0.957 | 0.929 | 0.247 | 0.331 | 0.358 | 0.191 |
| NCI-H358 | 0.94 | 1.19 | 0.922 | 0.97 | 0.898 | 0.744 | 0.66 | 0.323 | 0.169 | 0.961 | 0.751 | 0.917 | 0.958 | 0.806 | 0.142 | 0.151 | 0.136 | 0.105 |
| NCI-H441 | 1.12 | 1.16 | 1.08 | 1.14 | 0.956 | 0.567 | 0.614 | 0.303 | 0.266 | 1.01 | 0.903 | 1.04 | 1.02 | 1.08 | 0.461 | 0.577 | 0.286 | 0.22 |
| NCI-H1299 | 1.02 | 1.09 | 1.05 | 1.04 | 0.946 | 0.799 | 0.738 | 0.489 | 0.283 | 1.01 | 1.02 | 0.994 | 0.985 | 1 |  |  |  |  |
| NCI-H1648 | 0.943 | 0.809 | 1.03 | 0.853 | 0.779 | 1.03 | 0.712 | 0.637 | 0.278 | 0.724 | 0.698 | 0.846 | 0.832 | 0.956 |  |  |  |  |
| NCI-H1703 | 0.82 | 1.23 | 0.854 | 0.972 | 0.52 | 0.761 | 1.32 | 0.613 | 0.205 | 0.896 | 0.85 | 0.825 | 0.911 | 0.855 |  |  |  |  |
